Values joined by “and” are separate entries in the source; they are usually repeats but may differ in a detail not shown here. Equal values may be shown once.
Experiments:
[1] = system: male SJL mice; assay: EAE induced with PLP 139-151 in male SJL mice; type: in vivo
[2] = Serum 17β-estradiol measured by RIA in Tg mice; type: in vivo; details: 0.36 mg pellet
Protocol: Androgen and estrogen detection. Mice were bled by cardiac puncture and the blood was allowed to clot at 4° C. overnight. The samples were centrifuged, and the sera collected and stored at −80° C. until hormone analysis was performed. Serum levels of estrogen were determined by radioimmunoassay (RIA) after Sephadex LH-20 column chromatography, as described in Roselli et al., Endocrine 64:139 (1996). All samples were analyzed in a single assay.
17β-estradiol treatment. For 17β-estradiol hormone therapy, 3-mm pellets containing 0.36 mg of 17β-estradiol (Innovative Research of America, Sarasota, Fla.), expected to provide physiological equivalence of the estrus cycle (150-200 pg/ml in serum) over 60 days, were implanted s.c. on the animal's back 7 days before induction of EAE. […] The 17β-estradiol pellets provide continuous controlled release of a constant level of hormone over a period of 60 days. Serum concentrations of 17β-estradiol were evaluated in representative mice from each group. Sham treated mice had variable levels of 17β-estradiol that reflected both estrus and diestrus mice (ranging from about 20 to 200 pg/ml, on average about 50 pg/ml). […] E2-treated intact mice were also variable (about 200-400 pg/ml), reflecting the combination of native estrus/diestrus levels plus the exogenous estradiol from the pellet, whereas the E2-treated OVX mice were somewhat lower (about 150-200 pg/ml).

[3] = system: spinal cord mononuclear cells; assay: Mononuclear cell infiltration into spinal cords of Tg females with EAE; type: in vivo, mice; details: 0.36 mg pellet
Protocol: Induction of active EAE. EAE was induced, and disease assessed, essentially as described in Example II. Disease onset was defined as the first day of clinical signs, peak—acute phase of EAE—as maximum severity of clinical signs (day 16-17 after immunization with encephalitogenic peptide) and recovery as day 28 post-immunization, when clinical severity of EAE was diminished. The cumulative disease index (CDI) was determined for each mouse by summing the daily clinical scores. Mice selected from control, ovariectomized, and 17β-estradiol treated groups were sacrificed and spinal cords were isolated by insufflation and frozen at −70 C or mononuclear cells were isolated over a Percoll step gradient and counted as described in Offner et al., J. Immunol. 161:2178-2186 (1998). Lymph nodes (LN) or spleens (SPL) were removed surgically and passed through a wire mesh screen to obtain a single-cell suspension. Frozen spinal cords were subsequently thawed and evaluated for expression of chemokines, chemokine receptors and cytokines by the RNase protection assay.

[4] = system: Vβ8.2+/CD4+ T CELLS; assay: Flow cytometry of adhesion and activation antigens on LN Vβ8.2+/CD4+ T cells; type: in vivo, mice; details: E2 treated
Protocol: The regulation of cell adhesion molecules is another possible mechanism by which estrogen treatment controls the migration of inflammatory cells into the CNS. The expression of cell surface adhesion and activation/memory antigens was determined by staining with fluorochrome-labeled antibodies and flow cytometry. No significant differences in the expression of VLA-4, CD44, or CD62L were detected between LN cells from E2 versus control mice with EAE (Table 18). Furthermore, no differences in activation markers (CD69, CD25, FASL, CD40L, CD28) were seen.

[5] = system: Vβ8.1/8.2 TCR+ spleen cells; assay: Intracellular cytokine staining of MOG 35-55 stimulated spleen cells; type: in vivo, mice
Protocol: Intracellular staining for cytokines. Single cell suspensions from spleen were prepared from immunized mice and cultured at 10×10^6 cells/ml in stimulation media containing 50 μg/ml of MOG 35-55. The cells were stimulated for 24 hrs, the last 5 hrs in the presence of Brefeldin A. The cells were then stained with anti-Vβ8.1/8.2 TCR FITC for 30 min at 4° C. prior to fixation and permeabilization with cytofix/cytoperm solution (Pharmingen, Inc.). The cells were then stained with anti-cytokine antibodies labeled with phycoerythrin (anti-mouse IFN-γ, TNF-α, IL-4, IL-10, and IL-12 from Pharmingen Inc.) for 30 min at 4° C. The cells were washed twice in perm/wash buffer (Pharmingen, Inc.) and once in FACS staining buffer (PBS, 1% BSA, 0.05% NaN3) prior to two-color FACS analysis on a FACScan instrument (Beckton-Dickenson, Inc., Sunnyvale, Calif.) using Cell Quest software (Beckton-Dickenson, Inc.). For each experiment the cells were stained with isotype control antibodies to establish background staining and to set the quadrants prior to calculating the percent positive cells.
In order to determine whether estrogen treatment promotes a shift towards Th2 immunity, the frequency of both pro- and anti-inflammatory cytokine producing cells in untreated and E2 treated mice was assessed, using the intracellular cytokine staining technique. Spleen cells were prepared from untreated and E2 treated mice at the peak of EAE (day 12-16 post-immunization) and stimulated with MOG 35-55 for 24 hr, the last […] in the presence of Brefeldin A. The cells were stained with FITC labeled anti-Vβ8.1/8.2 TCR antibodies prior to fixation and permeabilization, and then were stained with the indicated phycoerythrin labeled anti-cytokine antibodies. Vβ8.1/8.2 TCR bearing T cells were focused on because they are thought to comprise a major population of the MOG-35-55 specific T cell responses in H-2b mice.

[6] = single experiments (Exp #1-#2), listed as E2
[7] = single experiments (Exp #1-#3), listed as E2

Compound: C[C@]12CC[C@@H]3c4ccc(O)cc4CC[C@H]3[C@@H]1CC[C@@H]2O [17β-estradiol]
- CDI ([1]; 0.36 mg/pellet): 6.4 ± 5.1
- Incidence ([1]; 0.36 mg/pellet): 3/4
- Incidence (%) ([1]; 0.36 mg/pellet): 75%
- Onset ([1]; 0.36 mg/pellet): 15.3 ± 3.2 days
- Peak (disease score) ([1]; 0.36 mg/pellet): 2.1 ± 2.4
- Incidence ([1]; 2.5 mg/pellet): 0/4
- Incidence (%) ([1]; 2.5 mg/pellet): 0%
- serum 17β-estradiol ([2]; OVX Tg mice): 100 to 200 pg/mL
- serum 17β-estradiol ([2]; OVX Tg mice, listed as E2): 150 to 200 pg/mL
- serum 17β-estradiol ([2]; intact Tg mice (pellet plus native hormone)): 150 to 400 pg/mL
- serum 17β-estradiol ([2]; intact Tg mice (pellet plus native hormone), listed as E2): 200 to 400 pg/mL
- Mean clinical score at time of cord removal [3]: 1.3
- Number of cells/cord [3]: 10000 cells/cord
- prevention of infiltration of mononuclear cells into spinal cords [3]: approximately 60%
- CD28, % of Vβ8.2+/CD4+ T CELLS ([4]; Exp #1): 4.5%
- CD40L, % of Vβ8.2+/CD4+ T CELLS ([4]; Exp #1): 0%
- CD62lo, % of Vβ8.2+/CD4+ T CELLS ([4]; Exp #1): 47.3%
- CD25, % of Vβ8.2+/CD4+ T CELLS, mean ([4]; mean of experiments): 7.4 ± 4.3%
- CD44hi, % of Vβ8.2+/CD4+ T CELLS, mean ([4]; mean of experiments): 55.8 ± 13.8%
- CD69, % of Vβ8.2+/CD4+ T CELLS, mean ([4]; mean of experiments): 21.6 ± 5.8%
- FASL, % of Vβ8.2+/CD4+ T CELLS, mean ([4]; mean of experiments): 1.6 ± 2.1%
- VLA-4, % of Vβ8.2+/CD4+ T CELLS, mean ([4]; mean of experiments): 57.5 ± 7.4%
- CD25, % of Vβ8.2+/CD4+ T CELLS [4, 6]: 4.3% and 10.4%
- CD69, % of Vβ8.2+/CD4+ T CELLS [4, 6]: 17.5% and 25.7%
- FASL, % of Vβ8.2+/CD4+ T CELLS [4, 6]: 0.1% and 3.1%
- CD44hi, % of Vβ8.2+/CD4+ T CELLS [4, 7]: 68.8% and 41.2% and 57.3%
- VLA-4, % of Vβ8.2+/CD4+ T CELLS [4, 7]: 64.2% and 58.7% and 49.6%
- frequency of TNF-α producing Vβ8.1/8.2 TCR+ cells ([5]; C57BL/6 mice, p=0.004): significantly diminished
- frequency of TNF-α producing Vβ8.1/8.2 TCR+ cells ([5]; IFN-γ knockout mice): no further reduction
- frequency of TNF-α producing Vβ8.1/8.2 TCR+ cells ([5]; IL-4 knockout mice, p=0.06): significantly diminished
- frequency of TNF-α producing Vβ8.1/8.2 TCR+ cells ([5]; IL-10 knockout mice, p=0.001): significantly diminished
- frequency of IFN-γ producing cells ([5]; trend, p>0.05): lower frequency

Source: patent US7579006B2, “Method of treating immune pathologies with low dose estrogen” (Oregon Health and Science University, priority 2000, dated 2009)
